From article PMC10578352, “Identification of a Protein Arginine Methyltransferase 7 (PRMT7)/Protein Arginine Methyltransferase 9 (PRMT9) Inhibitor” (Journal of Medicinal Chemistry, 2023)

Assays:
PRMT1 = molecular target: T1, PRMT1 (Homo sapiens, UniProt Q99873); assay: HotSpot radioisotope-based filter assay, PRMT1; format: biochemical; conditions: Figure 2; from IC50 values of ref 31
T1 construct: PRMT1 (residues 2–371, C-terminus); with an N-terminal GST-tag; GST (N); purchased Reaction Biology Corporation
Description: Then, ^3H-SAM (final concentration of 1 μM) was delivered into the reaction mixture to initiate the reaction. After incubation for 60 min at 30 °C, the reaction mixture was delivered to filter-paper for detection (as assessed by scintillation). Data were analyzed using Excel and GraphPad Prism 6.0 software (GraphPad Software Inc., San Diego, CA) for IC50 curve fits using sigmoidal dose vs response - variable slope (four parameters) equations.

human recombinant PRMT9 = molecular target: T2, human recombinant PRMT9 (Homo sapiens, UniProt Q6P2P2); assay: SPR binding to immobilized PRMT9; conditions: 1:1 Langmuir model, 25 °C
T2 construct: human recombinant PRMT9 (2–845; N-terminal FLAG-tag, C-terminal His6-tag); FLAG (N); His6 (C); purchased BPS BioScience 79124
T2 sequence (Q6P2P2 2-845): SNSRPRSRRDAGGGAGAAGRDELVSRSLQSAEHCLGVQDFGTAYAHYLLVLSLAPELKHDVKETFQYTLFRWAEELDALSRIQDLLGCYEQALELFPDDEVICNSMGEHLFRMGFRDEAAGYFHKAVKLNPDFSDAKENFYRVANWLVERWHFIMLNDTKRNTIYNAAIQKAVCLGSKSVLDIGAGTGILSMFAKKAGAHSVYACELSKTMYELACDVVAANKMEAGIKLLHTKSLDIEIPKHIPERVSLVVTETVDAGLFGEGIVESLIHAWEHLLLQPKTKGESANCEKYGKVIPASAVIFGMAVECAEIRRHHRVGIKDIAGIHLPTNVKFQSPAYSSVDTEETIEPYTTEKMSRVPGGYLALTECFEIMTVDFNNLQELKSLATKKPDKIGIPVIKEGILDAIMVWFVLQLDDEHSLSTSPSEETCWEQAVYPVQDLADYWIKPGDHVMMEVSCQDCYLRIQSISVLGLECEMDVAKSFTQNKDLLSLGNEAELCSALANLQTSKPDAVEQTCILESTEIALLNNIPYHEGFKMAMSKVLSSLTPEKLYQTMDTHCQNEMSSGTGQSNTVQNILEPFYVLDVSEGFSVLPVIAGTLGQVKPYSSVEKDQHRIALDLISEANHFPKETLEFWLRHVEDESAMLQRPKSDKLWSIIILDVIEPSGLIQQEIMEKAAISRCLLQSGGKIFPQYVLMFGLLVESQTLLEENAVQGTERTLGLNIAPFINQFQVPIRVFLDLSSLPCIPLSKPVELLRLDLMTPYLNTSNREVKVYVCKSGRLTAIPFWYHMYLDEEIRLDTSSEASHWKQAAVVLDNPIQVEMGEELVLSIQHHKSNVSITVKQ
Description: To characterize the effect of compound 1j on PRMT9, we resolved to evaluate its direct binding to the target protein using surface plasmon resonance (SPR). To this aim, human recombinant PRMT9 (2–845; N-terminal FLAG-tag, C-terminal His6-tag) was covalently immobilized on a sensor chip surface using an amine coupling approach and compound 1j was injected over the active and reference cells at 10 different concentrations (2-fold dilution series) from 25 to 0.05 μM using the multicycle modality. Each injection was performed with an association and a dissociation time of 90 and 180 s, respectively, and with a flow rate of 30 μL/min. To reduce false positives from detergent-sensitive, nonspecific aggregation-based binding, detergents (0.05% Tween20) were added to the running buffer in all experiments. The corrected sensorgrams were fitted simultaneously by kinetic analysis using the 1:1 Langmuir model of the BIAevaluation software to obtain equilibrium dissociation constants (KD) and kinetic dissociation (koff) and association (kon) constants, and the curve-fitting efficiency was evaluated by chi-square (χ^2). The χ^2 value of 1j was calculated to be 0.650, indicating a good fit.
SPR experiments were performed on a Biacore T200 biosensor (Cytiva). […] The curve-fitting efficiency was evaluated by the chi-square (χ^2). […]

[1] = molecular target: T3, EZH2/KMT6 (5 component complex) (Homo sapiens, UniProt Q15910); assay: HotSpot KMT activity assay, EZH2; format: biochemical; conditions: read-out: % EZH2 residual activity
T3 construct: including EZH2 residues 2–746, AEBP2 2–517, EED 2–441; His (N); purchased Reaction Biology Corporation
Description: Then, ^3H-SAM (final concentration 1 μM) was delivered into the reaction mixture to initiate the reaction. After incubation for 60 min at 30 °C, the reaction mixture was delivered to filter paper for detection (as assessed by scintillation). […] No inhibitor control (DMSO) was considered as showing 100% enzyme activity. Data were analyzed using Excel and GraphPad Prism 6.0 software (GraphPad Software Inc., San Diego, CA). Values obtained for each compound are mean ± SD determined for two separate experiments.

T3 sequence (Q15910 2-746): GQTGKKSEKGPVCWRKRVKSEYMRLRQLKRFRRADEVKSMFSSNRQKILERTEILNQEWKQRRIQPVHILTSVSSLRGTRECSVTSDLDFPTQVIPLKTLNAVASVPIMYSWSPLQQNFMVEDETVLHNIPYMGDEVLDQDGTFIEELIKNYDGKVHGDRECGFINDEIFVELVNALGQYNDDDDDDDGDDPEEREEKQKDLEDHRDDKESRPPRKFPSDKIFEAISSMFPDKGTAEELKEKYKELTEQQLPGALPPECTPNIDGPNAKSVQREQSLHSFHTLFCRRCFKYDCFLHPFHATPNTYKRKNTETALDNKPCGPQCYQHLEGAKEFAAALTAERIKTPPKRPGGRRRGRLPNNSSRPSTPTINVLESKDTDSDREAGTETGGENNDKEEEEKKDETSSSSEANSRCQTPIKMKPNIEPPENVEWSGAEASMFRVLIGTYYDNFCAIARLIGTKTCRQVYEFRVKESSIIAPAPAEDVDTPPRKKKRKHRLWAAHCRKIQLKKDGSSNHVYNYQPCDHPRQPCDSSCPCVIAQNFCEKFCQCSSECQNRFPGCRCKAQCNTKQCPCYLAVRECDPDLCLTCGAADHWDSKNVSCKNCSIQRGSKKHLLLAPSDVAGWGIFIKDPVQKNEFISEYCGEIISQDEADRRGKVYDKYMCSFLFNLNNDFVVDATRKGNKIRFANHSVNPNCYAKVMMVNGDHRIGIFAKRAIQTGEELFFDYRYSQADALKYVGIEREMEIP
T3 sequence (Q6ZN18 2-517 partner limits assumed): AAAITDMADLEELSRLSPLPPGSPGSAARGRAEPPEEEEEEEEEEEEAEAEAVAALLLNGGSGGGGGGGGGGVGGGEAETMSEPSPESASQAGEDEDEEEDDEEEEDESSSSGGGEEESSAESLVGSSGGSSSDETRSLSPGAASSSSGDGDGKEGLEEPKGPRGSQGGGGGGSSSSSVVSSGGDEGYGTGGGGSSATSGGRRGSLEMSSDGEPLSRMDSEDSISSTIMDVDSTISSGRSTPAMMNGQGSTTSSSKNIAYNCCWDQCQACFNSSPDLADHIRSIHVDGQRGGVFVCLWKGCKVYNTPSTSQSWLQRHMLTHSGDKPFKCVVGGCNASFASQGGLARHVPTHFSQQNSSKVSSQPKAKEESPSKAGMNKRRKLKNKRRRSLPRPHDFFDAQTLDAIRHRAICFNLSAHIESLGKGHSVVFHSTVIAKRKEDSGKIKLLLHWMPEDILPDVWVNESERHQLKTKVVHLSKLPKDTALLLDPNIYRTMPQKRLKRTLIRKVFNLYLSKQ
T3 sequence (O75530 2-441 partner limits assumed): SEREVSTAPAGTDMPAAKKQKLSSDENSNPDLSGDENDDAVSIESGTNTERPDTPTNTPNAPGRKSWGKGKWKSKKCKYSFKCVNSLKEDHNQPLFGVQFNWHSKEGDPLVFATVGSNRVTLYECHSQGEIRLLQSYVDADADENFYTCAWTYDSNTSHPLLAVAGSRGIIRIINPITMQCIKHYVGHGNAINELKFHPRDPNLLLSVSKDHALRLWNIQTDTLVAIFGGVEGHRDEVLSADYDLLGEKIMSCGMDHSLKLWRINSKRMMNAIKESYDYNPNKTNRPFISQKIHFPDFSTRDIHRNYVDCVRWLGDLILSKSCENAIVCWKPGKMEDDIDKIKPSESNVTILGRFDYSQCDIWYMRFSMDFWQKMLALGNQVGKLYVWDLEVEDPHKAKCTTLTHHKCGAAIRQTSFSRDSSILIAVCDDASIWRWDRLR
T3 sequence (Q09028 2-425 partner limits assumed): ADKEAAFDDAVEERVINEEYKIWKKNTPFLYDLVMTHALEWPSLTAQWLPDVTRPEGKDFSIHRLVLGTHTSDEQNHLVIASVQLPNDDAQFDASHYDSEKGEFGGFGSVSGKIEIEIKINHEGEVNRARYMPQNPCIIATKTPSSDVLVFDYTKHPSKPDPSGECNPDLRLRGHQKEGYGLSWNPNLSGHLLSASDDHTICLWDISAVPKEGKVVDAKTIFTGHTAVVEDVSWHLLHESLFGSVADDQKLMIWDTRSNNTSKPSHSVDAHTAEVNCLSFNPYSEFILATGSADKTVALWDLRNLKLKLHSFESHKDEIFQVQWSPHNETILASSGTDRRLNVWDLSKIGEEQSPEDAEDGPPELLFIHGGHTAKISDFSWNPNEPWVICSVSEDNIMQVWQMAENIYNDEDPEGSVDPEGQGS
T3 sequence (Q15022 2-739 partner limits assumed): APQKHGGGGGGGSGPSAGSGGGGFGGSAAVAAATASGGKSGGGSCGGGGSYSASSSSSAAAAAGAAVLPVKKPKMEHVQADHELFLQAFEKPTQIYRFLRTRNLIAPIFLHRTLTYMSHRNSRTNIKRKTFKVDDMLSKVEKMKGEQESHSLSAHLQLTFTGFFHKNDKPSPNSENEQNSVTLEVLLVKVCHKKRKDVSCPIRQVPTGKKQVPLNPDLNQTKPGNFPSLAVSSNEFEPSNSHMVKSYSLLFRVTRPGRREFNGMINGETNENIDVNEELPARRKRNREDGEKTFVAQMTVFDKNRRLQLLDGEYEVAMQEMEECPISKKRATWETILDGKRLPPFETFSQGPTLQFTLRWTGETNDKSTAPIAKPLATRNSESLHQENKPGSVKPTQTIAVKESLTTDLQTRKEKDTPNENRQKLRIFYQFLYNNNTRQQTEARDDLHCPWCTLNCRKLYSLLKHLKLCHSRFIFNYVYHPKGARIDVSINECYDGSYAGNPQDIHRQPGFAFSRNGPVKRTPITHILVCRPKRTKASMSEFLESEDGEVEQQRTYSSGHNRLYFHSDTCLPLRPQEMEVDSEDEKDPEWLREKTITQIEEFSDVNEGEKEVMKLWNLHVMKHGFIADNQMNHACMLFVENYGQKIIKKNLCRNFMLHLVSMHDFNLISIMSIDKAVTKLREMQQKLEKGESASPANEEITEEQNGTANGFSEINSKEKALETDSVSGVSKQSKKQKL
T1 sequence (Q99873 2-371): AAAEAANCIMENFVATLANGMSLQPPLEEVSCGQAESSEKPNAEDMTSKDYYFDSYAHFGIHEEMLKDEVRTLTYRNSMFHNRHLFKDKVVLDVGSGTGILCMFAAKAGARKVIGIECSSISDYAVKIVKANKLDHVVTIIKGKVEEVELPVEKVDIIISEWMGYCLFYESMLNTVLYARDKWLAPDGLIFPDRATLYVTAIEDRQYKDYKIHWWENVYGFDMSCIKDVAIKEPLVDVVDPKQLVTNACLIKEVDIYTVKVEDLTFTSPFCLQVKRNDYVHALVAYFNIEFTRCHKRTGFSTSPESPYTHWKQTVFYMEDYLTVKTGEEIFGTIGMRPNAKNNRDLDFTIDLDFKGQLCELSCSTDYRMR

| Compound | selectivity index for PRMT7 over PRMT1 (PRMT1) [fold] | PRMT9 SPR residence time (τR = 1/koff) (human recombinant PRMT9) [s] | Kd (human recombinant PRMT9; KD = koff/kon) [nM] | remaining activity at 10 µM ([1]; 10 μM) [%] | remaining activity at 100 µM ([1]; 100 μM) [%] |
| --- | --- | --- | --- | --- | --- |
| COC(=O)c1cc(O)c2cc(NC(=O)NCCCCCNC(=N)NC[C@H]3O[C@@H](n4cnc5c(N)ncnc54)[C@H](O)[C@@H]3O)ccc2c1 [1c] | 38 | – | – | – | – |
| COC(=O)c1cc(O)c2cc(NC(=O)NCCCNC(=N)NC[C@H]3O[C@@H](n4cnc5c(N)ncnc54)[C@H](O)[C@@H]3O)cc(C(F)(F)F)c2c1 [1j, Methyl 6-(3-(3-(3-(((2R,3S,4R,5R)-5-(6-Amino-9H-purin-9-yl)-3,4-dihydroxytetrahydrofuran-2-yl)methyl)guanidino)propyl)ureido)-4-hydroxy-8-(trifluoromethyl)-2-naphthoate] | – | 500 | 188 | 104.5 ± 0.99 | 77.6 ± 3.43 |
